Measured values as given in BindingDB's records for doi:10.1021/jm960510x (University of Camerino, 1996).

Each molecule was assayed against Alpha-1B adrenergic receptor (Mesocricetus auratus) (UniProt P18841) (assay: Compound was tested for binding affinity against cloned Alpha-1B adrenergic receptor from hamster smooth muscle using radioligand ([3H]prazosin) binding assay).
Alpha-1B adrenergic receptor (Mesocricetus auratus), sequence (P18841 whole entry, looked up): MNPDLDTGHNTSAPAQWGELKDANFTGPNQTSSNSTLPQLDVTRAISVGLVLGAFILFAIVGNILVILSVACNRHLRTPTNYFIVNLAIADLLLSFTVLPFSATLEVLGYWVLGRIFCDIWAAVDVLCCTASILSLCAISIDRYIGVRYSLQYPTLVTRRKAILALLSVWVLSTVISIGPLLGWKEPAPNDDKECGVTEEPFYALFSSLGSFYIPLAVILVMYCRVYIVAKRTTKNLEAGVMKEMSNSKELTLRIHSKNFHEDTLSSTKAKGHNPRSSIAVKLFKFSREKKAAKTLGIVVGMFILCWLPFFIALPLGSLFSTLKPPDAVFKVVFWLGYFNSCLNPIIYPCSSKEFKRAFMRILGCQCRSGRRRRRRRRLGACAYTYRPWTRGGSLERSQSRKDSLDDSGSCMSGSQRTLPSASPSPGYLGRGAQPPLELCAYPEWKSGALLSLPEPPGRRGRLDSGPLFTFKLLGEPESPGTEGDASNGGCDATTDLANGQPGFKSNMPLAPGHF

Structure (SMILES)	Ki [pM]
COc1cc2nc(N3CCN(C(=O)c4ccco4)[C@H]4CCCC[C@H]43)nc(N)c2cc1OC [CYCLAZOSIN]	309
COc1cc2nc(N3CCN(C(=O)c4ccco4)C4CCCCC43)nc(N)c2cc1OC (stereo not drawn) [(Cyclazosin)[4-(4-Amino-6,7-dimethoxy-quinazolin-2-yl)-octahydro-quinoxalin-1-yl]-furan-2-yl-methanone]	589
COc1cc2nc(N3CCN(C(=O)c4ccco4)[C@@H]4CCCC[C@@H]43)nc(N)c2cc1OC	692
